Experimental data reported in ChEMBL document CHEMBL3994635, “Inhibition of LPS-stimulated ROS production by fluorinated and hydroxylated chalcones in RAW 264.7 macrophages with structure-activity relationship study” (Bioorg Med Chem Lett, 2017).

Legend:
RAW264.7 [1] = assay: Inhibition of LPS-stimulated ROS production in mouse RAW264.7 cells preincubated for 1 hr followed by LPS stimulation for 24 hrs measured after 30 mins by CMH2DCFDA probe-based fluorescence assay; assay type: functional, cell-based
RAW264.7 [2] = assay: Cytotoxicity in mouse RAW264.7 cells assessed as cell viability after 24 hrs by MTS assay; assay type: cell-based; conditions: raw264.7, 24 h
[3] = Cytotoxicity in mouse RAW264.7 cells assessed as cell viability at 1 uM after 24 hrs by MTS assay; assay type: cell-based; conditions: read-out: Activity
RAW264.7 [4] = assay: Inhibition of LPS-stimulated ROS production in mouse RAW264.7 cells after 22 hrs by C-400 fluorescent dye-based assay; assay type: functional, cell-based; conditions: RAW264.7, 22 h

| IC50 (RAW264.7 [1]) | SMILES | Activity (RAW264.7 [2]) | viability at 24 h, 1 µM [3] | IC50 (RAW264.7 [4]) |
| --- | --- | --- | --- | --- |
| > 10 µM | O=C(/C=C/c1ccccc1F)c1ccccc1 | Non-Toxic |  |  |
| 9.15 µM | O=C(/C=C/c1cccc(F)c1)c1ccc(O)cc1 | Non-Toxic |  |  |
| > 10 µM | O=C(/C=C/c1ccccc1C(F)(F)F)c1ccc(O)cc1 | Non-Toxic |  |  |
| > 10 µM | O=C(/C=C/c1ccccc1C(F)(F)F)c1cccc(O)c1 | Non-Toxic |  |  |
| > 10 µM | O=C(/C=C/c1ccccc1OC(F)(F)F)c1ccccc1 | Non-Toxic |  |  |
|  | O=C(/C=C/c1cccc(C(F)(F)F)c1)c1cccc(O)c1 |  | < 90% |  |
| > 10 µM | O=C(/C=C/c1cccc(F)c1)c1cccc(O)c1 | Non-Toxic |  |  |
| > 10 µM | O=C(/C=C/c1cccc(F)c1)c1ccccc1O | Non-Toxic |  |  |
| > 10 µM | O=C(/C=C/c1ccc(OC(F)(F)F)cc1)c1ccc(O)cc1 | Non-Toxic |  |  |
| > 10 µM | O=C(/C=C/c1cccc(C(F)(F)F)c1)c1ccccc1 | Non-Toxic |  |  |
| > 10 µM | O=C(/C=C/c1ccccc1F)c1cccc(O)c1 | Non-Toxic |  |  |
| 1.61 µM | O=C(/C=C/c1ccccc1OC(F)(F)F)c1cccc(O)c1 | Non-Toxic |  |  |
| > 10 µM | O=C(/C=C/c1ccccc1F)c1ccc(O)cc1 | Non-Toxic |  |  |
| > 10 µM | O=C(/C=C/c1ccc(F)cc1)c1ccccc1O | Non-Toxic |  |  |
| > 10 µM | O=C(/C=C/c1ccc(C(F)(F)F)cc1)c1ccccc1 | Non-Toxic |  |  |
|  | O=C(/C=C/c1ccccc1C(F)(F)F)c1ccccc1O |  | < 90% |  |
| > 10 µM | O=C(/C=C/c1ccc(C(F)(F)F)cc1)c1cccc(O)c1 | Non-Toxic |  |  |
| 1.34 µM | O=C(/C=C/c1ccccc1OC(F)(F)F)c1ccc(O)cc1 | Non-Toxic |  |  |

| IC50 (RAW264.7 [1]) | SMILES | Activity (RAW264.7 [2]) | viability at 24 h, 1 µM [3] | IC50 (RAW264.7 [4]) |
| --- | --- | --- | --- | --- |
| > 10 µM | O=C(/C=C/c1ccc(F)cc1)c1cccc(O)c1 | Non-Toxic |  |  |
|  | O=C(/C=C/c1cccc(C(F)(F)F)c1)c1ccccc1O |  | < 90% |  |
| > 10 µM | O=C(/C=C/c1cccc(OC(F)(F)F)c1)c1ccc(O)cc1 | Non-Toxic |  |  |
| > 10 µM | O=C(/C=C/c1cccc(OC(F)(F)F)c1)c1cccc(O)c1 | Non-Toxic |  |  |
| > 10 µM | O=C(/C=C/c1ccc(F)cc1)c1ccc(O)cc1 | Non-Toxic |  |  |
|  | O=C(/C=C/c1ccccc1OC(F)(F)F)c1ccccc1O |  | < 90% |  |
| > 10 µM | O=C(/C=C/c1ccc(C(F)(F)F)cc1)c1ccccc1O | Non-Toxic |  |  |
| > 10 µM | O=C(/C=C/c1ccc(OC(F)(F)F)cc1)c1cccc(O)c1 | Non-Toxic |  |  |
|  | COc1cc(-c2[o+]c3cc(O)cc(O)c3cc2O)cc(OC)c1O [MALVIDIN CHLORIDE] |  |  | 9 µM |
|  | O=C(/C=C/c1cccc(OC(F)(F)F)c1)c1ccccc1O |  | < 90% |  |
| > 10 µM | O=C(/C=C/c1ccccc1F)c1ccccc1O | Non-Toxic |  |  |
| > 10 µM | O=C(/C=C/c1ccc(OC(F)(F)F)cc1)c1ccccc1O | Non-Toxic |  |  |
| 1.44 µM | O=C(/C=C/c1cccc(C(F)(F)F)c1)c1ccc(O)cc1 | Non-Toxic |  |  |
| > 10 µM | O=C(/C=C/c1cccc(OC(F)(F)F)c1)c1ccccc1 | Non-Toxic |  |  |
| > 10 µM | O=C(/C=C/c1cccc(F)c1)c1ccccc1 | Non-Toxic |  |  |
| > 10 µM | O=C(/C=C/c1ccc(C(F)(F)F)cc1)c1ccc(O)cc1 | Non-Toxic |  |  |
| > 10 µM | O=C(/C=C/c1ccccc1C(F)(F)F)c1ccccc1 | Non-Toxic |  |  |
| > 10 µM | O=C(/C=C/c1ccc(OC(F)(F)F)cc1)c1ccccc1 | Non-Toxic |  |  |
